Source: patent US4640916A, “1,4-benzothiazine derivatives, compositions containing them and method of use” (priority 1984, dated 1987)
Structures can show the parent of a compound that is named as a salt.

How the values were obtained:
[1] = system: spontaneously hypertensive rats; assay: Antihypertensive action in spontaneously hypertensive rats (tail-cuff); type: in vivo; conditions: 1 h after administration
Experimental: Male 12 to 13 weeks old spontaneously hypertensive rats with about 200 mm Hg of blood pressure were used in groups of 3 individuals. Mean arterial blood pressures of these animals were measured by the tail-cuff method, then the animals were orally given 3-60 mg/kg of each test compound of this invention as 2 ml of its suspension in gum arabic. Blood pressure measurements were made again one hour after administration of each test compound.

[2] = system: ischemia-reperfusion-induced ventricular arrythmia in rats; assay: Effect on the ischemia-reperfusion-induced ventricular arrhythmia in rats; type: in vivo, Sprague-Dawley rats; conditions: p.o.; for Incidence of cardiac arrest (CA), rats affected/rats used / Incidence of ventricular fibrillation (VF), rats affected/rats used / Incidence of ventricular tachycardia (VT), rats affected/rats used: 10 min after reperfusion; for Effect on incidences of VT, VF and CA (in words): Ex. 48 at 1, 3 and 10 mg/kg, Ex. 46 at 0.3, 1, 3 and 10 mg/kg
Experimental: Male Sprague-Dawley rats, 9 to 10 week old, were orally given the compounds or tap water at a volume of 5 ml/kg. After 1 hour, rats were anesthetized with sodium pentobarbital (50 mg/kg, i.p.), and left anterior descending coronary artery was occluded for 5 min. with a silk thread under ventilation. The incidences of ventricular tachycardia (VT), ventricular fibrilation (VF) and cardiac arrest (CA) occurred for 10 min. after reperfusion of the blood were calculated.

[3] = system: ischemic seizure induced by bilateral carotid artery occlusion; assay: Effect on the ischemic seizure induced by bilateral carotid artery occlusion in spontaneously hypertensive rats; type: in vivo; conditions: p.o.; for Time toward ischemic seizure: 1 h before occlusion; for Effect on time of the beginning of the ischemic seizure (in words): Ex. 48 at 1, 3 and 10 mg/kg, Ex. 46 at 0.3, 1 and 3 mg/kg
Experimental: Male spontaneously hypertensive rats, 20 to 22 week old, were orally given the compounds or tap water at a volume of 5 ml/kg. After 1 hour, the carotid artery was bilaterally occluded by use of silk thread under anesthesia with sodium pentobarbital (50 mg/kg, i.p.). The length of time until the ischemic seizure such as convulsion and jumping was observed was measured, immediately after the occlusion of carotid artery.

[4] = system: ischemic acute renal failure in rats; assay: Effect on the ischemic acute renal failure in rats; type: in vivo, Sprague-Dawley rats; conditions: for Plasma urea nitrogen (BUN): p.o., 24 h after reperfusion; for Effect on the increase in BUN (in words): Ex. 48 at 10 mg/kg, Ex. 46 at 1 and 3 mg/kg
Experimental: The left renal artery of male Sprague-Dawley rats, 6 week old, was clamped for 1 hour under anesthesia with sodium pentobarbital (50 mg/kg, i.p.). The compounds or water was orally given 1 hour before the occlusion. The compounds were again given 20 hour after the reperfusion of the blood. Twenty four hour after the reperfusion, the blood was obtained from the abdominal aorta under anesthesia for measurement of plasma urea nitrogen (BUN).

[5] = system: intracellular Ca^++; conditions: (2) Ca++ from intracellular store site; (3) Ca++ through receptor-dependent channel; cited from earlier work
[6] = system: contraction depending on intracellular Ca^++; assay: Intracellular Ca++ antagonism: inhibition of phenylephrine contraction of aorta strip in Ca++-free EGTA solution; type: cell-based, rabbit; conditions: Oryctolagus cuniculus, phenylephrine 10^-6 M, Ca++ 0 mM, EGTA 5 mM, read-out: Inhibitory percent (contraction depending on intracellular Ca++)
Experimental: A spiral strip of aorta of a rabbit (2-3 mm width, about 3 cm length) was allowed to equilibrate by hanging under 2 g force in a Krebs-Henseleit solution. The solution was saturated with a mixture gas 97% O2 --3% CO2, which was warmed to 37° C. The strip was moved into another Krebs-Henseleit solution containing Ca^++ OmM and EGTA 5 mM. Five minutes later, phenylephrine (10^-6 M) was added on the solution. The resulting contraction of the strip was made as the index of the contraction depending on intracellular Ca^++.

[7] = cited from earlier work
[8] = system: contraction of the aorta strip caused by KCl; assay: Vasodilating action: inhibition of contraction of rabbit aorta strip caused by KCl; type: cell-based; conditions: Oryctolagus cuniculus, compound 10^-5 M, KCl 60 mM, 15 min pretreatment, read-out: Inhibitory percent against contraction, KCl
Experimental: (§1) A spiral strip of aorta of a rabbit (2-3 mm width, about 3 cm length) was allowed to equilibrate by hanging under 2 g force in a Krebs-Henseleit solution. The solution was saturated with a mixture gas of 97% O2 --3% CO2 which was warmed to 37° C. Inhibitory actions of compounds (10^-5 M) of this invention against contraction of the aorta strip caused by KCl (60 mM), norepinephrine (NE) (10^-6 M) or serotonin (5--HT) (10^-6 M), by treating the strip with a compound of this invention 15 minutes before the test, are shown in Table 1 as inhibitory percent.

[9] = system: contraction of the aorta strip caused by norepinephrine (NE); assay: Vasodilating action: inhibition of contraction of rabbit aorta strip caused by norepinephrine (NE); type: cell-based; conditions: Oryctolagus cuniculus, compound 10^-5 M, NE 10^-6 M, 15 min pretreatment, read-out: Inhibitory percent against contraction, NE
Experimental: as §1

[10] = system: contraction of the aorta strip caused by serotonin (5--HT); assay: Vasodilating action: inhibition of contraction of rabbit aorta strip caused by serotonin (5-HT); type: cell-based; conditions: Oryctolagus cuniculus, compound 10^-5 M, 5-HT 10^-6 M, 15 min pretreatment, read-out: Inhibitory percent against contraction, 5-HT
Experimental: as §1

[11] = in vivo; cited from earlier work
[12] = 1 mg/kg, control 139 ± 9 (Ex. 48), 150 ± 6 (Ex. 46)
[13] = 3 mg/kg, control 152 ± 14 (Ex. 48), 150 ± 6 (Ex. 46)
[14] = 3 mg/kg, control 20.3 ± 0.6 (Ex. 48), 25.1 ± 0.8 (Ex. 46)

With `O=C1Nc2cc3c(cc2SC1CCCN1CCN(c2ccc(F)cc2)CC1)CCC3` (stereo not shown) [Example 46, 6,7-cyclopenteno-2-[3-[4-(4-fluorophenyl)-1-piperazinyl]propyl]-2H-1,4-benzothiazin-3(4H)-one.hydrochloride] the “Antihypertensive effect (difference of blood pressure before and after medication)” value ([1]; 3 mg/Kg oral) was 33 ΔmmHg, the “Incidence of cardiac arrest (CA), rats affected/rats used” value ([2]; 0.3 mg/kg) was 9/19 and the “Incidence of ventricular fibrillation (VF), rats affected/rats used” value (shortened to “Incidence … (VF), rats affected/rats used”) ([2]; 0.3 mg/kg) was 9/19. For the same compound, the “Incidence of ventricular tachycardia (VT), rats affected/rats used” value (shortened to “Incidence … (VT), rats affected/rats used”) ([2]; 0.3 mg/kg) was 12/19, the “Incidence of cardiac arrest (CA), rats affected/rats used” value ([2]; 1 mg/kg) was 0/12 and the “Incidence … (VF), rats affected/rats used” value ([2]; 1 mg/kg) was 5/12. The “Incidence … (VT), rats affected/rats used” value ([2]; 1 mg/kg) was 7/12, the “Incidence of cardiac arrest (CA), rats affected/rats used” value ([2]; 3 mg/kg) was 0/12 and the “Incidence … (VF), rats affected/rats used” value ([2]; 3 mg/kg) was 2/12. For the same compound, the “Incidence … (VT), rats affected/rats used” value ([2]; 3 mg/kg) was 5/12, the “Incidence of cardiac arrest (CA), rats affected/rats used” value ([2]; 10 mg/kg) was 0/4 and the “Incidence … (VF), rats affected/rats used” value ([2]; 10 mg/kg) was 1/4. The “Incidence … (VT), rats affected/rats used” value ([2]; 10 mg/kg) was 1/4, the “Effect on incidences of VT, VF and CA (in words)” value [2] was “inhibited the incidences of VT, VF and CA in a dose-dependent manner” and the “Time toward ischemic seizure” value ([3]; 0.1 mg/kg, control 153 ± 8) was 167 ± 13 min. For the same compound, the “Time toward ischemic seizure” value ([3]; 0.3 mg/kg, control 143 ± 7) was 190 ± 11 min, the “Time toward ischemic seizure” value [3, 12] was 217 ± 11 min and the “Time toward ischemic seizure” value [3, 13] was 279 ± 18 min. For the same compound, the “Effect on time of the beginning of the ischemic seizure (in words)” value [3] was “prolonged the time of the beginning of the ischematic seizure in a dose-dependent manner”, the “Plasma urea nitrogen (BUN)” value ([4]; 1 mg/kg, control 20.4 ± 0.4) was 18.0 ± 0.7 mg/dL and the “Plasma urea nitrogen (BUN)” value [4, 14] was 19.6 ± 0.8 mg/dL. The “Effect on the increase in BUN (in words)” value [4] was “inhibited the increase in BUN”.
For `NCCCCCCNS(=O)(=O)c1cccc2c(Cl)cccc12` [Example W-7], the “Action on intracellular Ca++ (in words)” value [5] is listed as “weak in their action”.
For `CCN(CC)CCCCCCCCOC(=O)c1cc(OC)c(OC)c(OC)c1` [TMB-8], the inhibition at 100 µM ([6]; compound 10^-4 M) is listed as 58%, the “Action on intracellular Ca++ (in words)” value [5] is listed as “weak in their action” and the “Antihypertensive action in vivo (in words)” value [7] is listed as “do not display antihypertensive action in vivo”.
In the case of `Cc1cc(C)c2c(c1)SC(CCCN1CCN(c3ccc(F)cc3)CC1)C(=O)N2` (stereo not shown) [Example 11], the inhibition at 10 µM [8] is reported as 70%, the inhibition at 10 µM [9] is reported as 95% and the inhibition at 10 µM [10] is reported as 67%. The inhibition at 1 µM ([6]; compound 10^-6 M) was 97% and the “Antihypertensive effect (difference of blood pressure before and after medication)” value ([1]; 30 mg/Kg oral) was 49 ΔmmHg.
For `Cc1cccc2c1NC(=O)C(CCCN1CCN(c3ccc(F)cc3)CC1)S2` (stereo not shown) [Example 48, 2-[3-[4-(4-fluorophenyl)-1-piperazinyl]propyl]-5-methyl-2H-1,4-benzothiazin-3(4H)-one], the “Incidence of cardiac arrest (CA), rats affected/rats used” value ([2]; 1 mg/kg) was 3/10, the “Incidence … (VF), rats affected/rats used” value ([2]; 1 mg/kg) was 5/10 and the “Incidence … (VT), rats affected/rats used” value ([2]; 1 mg/kg) was 7/10. The “Incidence of cardiac arrest (CA), rats affected/rats used” value ([2]; 3 mg/kg) was 1/9, the “Incidence … (VF), rats affected/rats used” value ([2]; 3 mg/kg) was 3/9 and the “Incidence … (VT), rats affected/rats used” value ([2]; 3 mg/kg) was 4/9. The “Incidence of cardiac arrest (CA), rats affected/rats used” value ([2]; 10 mg/kg) was 0/6, the “Incidence … (VF), rats affected/rats used” value ([2]; 10 mg/kg) was 1/6 and the “Incidence … (VT), rats affected/rats used” value ([2]; 10 mg/kg) was 1/6. For the same compound, the “Effect on incidences of VT, VF and CA (in words)” value [2] was “inhibited the incidences of VT, VF and CA in a dose-dependent manner”, the “Time toward ischemic seizure” value [3, 12] was 167 ± 8 min and the “Time toward ischemic seizure” value [3, 13] was 214 ± 22 min. For the same compound, the “Time toward ischemic seizure” value ([3]; 10 mg/kg, control 132 ± 14) was 275 ± 22 min, the “Effect on time of the beginning of the ischemic seizure (in words)” value [3] was “prolonged the time of the beginning of the ischematic seizure in a dose-dependent manner” and the “Plasma urea nitrogen (BUN)” value [4, 14] was 18.9 ± 0.6 mg/dL. For the same compound, the “Plasma urea nitrogen (BUN)” value ([4]; 10 mg/kg, control 22.8 ± 1.0) was 16.9 ± 0.7 mg/dL and the “Effect on the increase in BUN (in words)” value [4] was “inhibited the increase in BUN”.
For `CN1CCN(CCCN2c3ccccc3Sc3ccc(C(F)(F)F)cc32)CC1` [trifluoperazine], the “Action on intracellular Ca++ (in words)” value [5] is listed as “showing antagonism against intracellular Ca^++” and the “Side effects of known drugs (in words)” value [11] is listed as “side effects e.g. on the central nervous system”.
In the case of `COc1cc2nc(N3CCN(C(=O)c4ccco4)CC3)nc(N)c2cc1OC` [prazosin], the “Side effects of known drugs (in words)” value [11] is listed as “orthostatic hypotension often observed”.
In the case of `COC(=O)C1=C(C)NC(C)=C(C(=O)OC)C1c1ccccc1[N+](=O)[O-]` [nifedipine], the “Action on intracellular Ca++ (in words)” value [5] is given as “hardly acts on (2) and (3)”.
